{"source": "patent US20200352905A1", "about": "“6-(2,4-DICHLOROPHENYL)-5-[4-[(3S)-1-(3-FLUOROPROPYL)PYRROLIDIN-3-YL]OXYPHENYL]-8,9-DIHYDRO-7H-BENZO[7]ANNULENE-2-CARBOXYLIC ACID FOR USE IN METASTATIC OR ADVANCED BREAST CANCER PATIENTS” (SANOFI, priority 2019, published 2020)", "key": {"[1]": {"assay": "Pilot food effect on PK (moderate fat breakfast, Day 3 Cycle 1, Part A)", "type": "in vivo, human", "protocol": "Pilot food effect: A pilot food effect is assessed by PK sampling after drug administration with a moderate fat breakfast on Day 3 of Cycle 1 in all patients treated in Part A. All other dosing in Part A is taken in fasted condition. If results from the QD dosing regimen allow conclusions to be drawn, this will not be implemented for other dosing regimens (eg, BID) that are explored.\nFor the QD regimen, during Cycle 1, one dose is taken on Day 1 in fasting condition, no dose on Day 2 and repeated administration starts from Day 3. On Day 3 only, the dose is taken in fed condition for a food effect evaluation, and then all subsequent administrations are taken in fasted condition, and at approximately the same time each day (±3 hours). From the conclusions drawn with the initial QD dose regimen, patients treated with other dose regimens are allowed to take Compound (1) in fasted or fed condition. For the BID regimen, the 600 mg dose is split in two drug administrations: 300 mg taken two times a day 12 hours apart (i.e. 2×300 mg)±1 hour with or without food (with one dose only taken in the morning on Day 1, no dose on Day 2 and then repeated BID dosing from Day 3).\nThe food effect is assessed by comparing AUC0-24 and Cmax between Day 1/Cycle 1 and Day 3/Cycle 1 in Part A."}, "[2]": {"assay": "TED14856 Part B (dose expansion, 400 mg QD): safety, TEAEs", "type": "in vivo, human", "conditions": "Part B", "protocol": "Part B: Dose expansion study to evaluate the efficacy, safety, PK and PD of compound (1) administered at the RD (from Part A). […] A BID regimen (without omission on Day 2) may also be explored if found to be needed. Safety population includes all patients exposed to at least one dose of the study treatment. Treatment emergent adverse events (TEAEs) are analyzed according to current version of the Medical Dictionary for Regulatory Activities (MedDRA) dictionary. Laboratory abnormalities are analyzed according to the NCI-CTCAE v.4.03. Type, frequency, seriousness, severity and relatedness of study treatment TEAEs is analyzed on the safety population for each dose level. Similar analyses as for the escalation phase shall be performed."}}, "note": "“Also recorded” adds a separate entry of the source.", "data": [{"smiles": "O=C(O)c1ccc2c(c1)CCCC(c1ccc(Cl)cc1Cl)=C2c1ccc(O[C@H]2CCN(CCCF)C2)cc1", "note": "[compound (1), 6-(2,4-dichlorophenyl)-5-[4-[(3S)-1-(3-fluoropropyl)pyrrolidin-3-yl]oxyphenyl]-8,9-dihydro-7H-benzo[7]annulene-2-carboxylic acid]", "values": [{"measurement": "Tmax", "setting": "[1]; female, human, plasma, oral, overall across doses, read-out: delay of median tmax with food", "result": "~1", "unit": "h"}, {"measurement": "increase of exposure with food", "setting": "[1]; overall across doses", "result": "about 45%"}, {"measurement": "food effect on exposure", "setting": "[1]; regardless of dose level", "result": "did not result in a major effect on exposure; also recorded: minimal"}, {"measurement": "Grade 3 laboratory abnormality: ALK increase", "setting": "[2]", "result": 2, "unit": "patients"}, {"measurement": "Grade 3 laboratory abnormality: ALT increase", "setting": "[2]", "result": 4, "unit": "patients"}, {"measurement": "Grade 3 laboratory abnormality: AST increase", "setting": "[2]", "result": 6, "unit": "patients"}, {"measurement": "Grade 3 laboratory abnormality: anemia", "setting": "[2]", "result": 1, "unit": "patients"}, {"measurement": "Grade 3 laboratory abnormality: bilirubin increase", "setting": "[2]", "result": 3, "unit": "patients"}, {"measurement": "Grade 3 laboratory abnormality: hypercalcemia", "setting": "[2]", "result": 1, "unit": "patients"}, {"measurement": "Grade 3 laboratory abnormality: hyponatremia", "setting": "[2]", "result": 2, "unit": "patients"}, {"measurement": "Grade 3 laboratory abnormality: hypophosphatemia", "setting": "[2]", "result": 2, "unit": "patients"}, {"measurement": "Grade 3 laboratory abnormality: lymphopenia", "setting": "[2]", "result": 5, "unit": "patients"}, {"measurement": "Grade 3 laboratory abnormality: neutropenia", "setting": "[2]", "result": 1, "unit": "patients"}, {"measurement": "Grade 4 laboratory abnormality: hypocalcemia", "setting": "[2]", "result": 1, "unit": "patients"}, {"measurement": "Grade 4 laboratory abnormality: hypokalemia", "setting": "[2]", "result": 1, "unit": "patients"}, {"measurement": "Grade 4 laboratory abnormality: hyponatremia", "setting": "[2]", "result": 1, "unit": "patients"}, {"measurement": "Patients with Gr3 TEAE: Abdominal pain", "setting": "[2]; 400 mg, N=49", "result": 0, "unit": "n"}, {"measurement": "Patients with Gr3 TEAE: Abdominal pain upper", "setting": "[2]; 400 mg, N=49", "result": 0, "unit": "n"}, {"measurement": "Patients with Gr3 TEAE: Arthralgia", "setting": "[2]; 400 mg, N=49", "result": 0, "unit": "n"}, {"measurement": "Patients with Gr3 TEAE: Asthenia", "setting": "[2]; 400 mg, N=49", "result": 0, "unit": "n"}, {"measurement": "Patients with Gr3 TEAE: Back pain", "setting": "[2]; 400 mg, N=49", "result": 0, "unit": "n"}, {"measurement": "Patients with Gr3 TEAE: Constipation", "setting": "[2]; 400 mg, N=49", "result": 0, "unit": "n"}, {"measurement": "Patients with Gr3 TEAE: Cough", "setting": "[2]; 400 mg, N=49", "result": 0, "unit": "n"}, {"measurement": "Patients with Gr3 TEAE: Decreased appetite", "setting": "[2]; 400 mg, N=49", "result": 0, "unit": "n"}, {"measurement": "Patients with Gr3 TEAE: Depression", "setting": "[2]; 400 mg, N=49", "result": 0, "unit": "n"}, {"measurement": "Patients with Gr3 TEAE: Diarrhoea", "setting": "[2]; 400 mg, N=49", "result": 0, "unit": "n"}, {"measurement": "Patients with Gr3 TEAE: Dry skin", "setting": "[2]; 400 mg, N=49", "result": 0, "unit": "n"}, {"measurement": "Patients with Gr3 TEAE: Dyspnoea", "setting": "[2]; 400 mg, N=49", "result": 0, "unit": "n"}, {"measurement": "Patients with Gr3 TEAE: Gastroesophageal reflux disease", "setting": "[2]; 400 mg, N=49", "result": 0, "unit": "n"}, {"measurement": "Patients with Gr3 TEAE: Headache", "setting": "[2]; 400 mg, N=49", "result": 0, "unit": "n"}, {"measurement": "Patients with Gr3 TEAE: Hot flush", "setting": "[2]; 400 mg, N=49", "result": 0, "unit": "n"}, {"measurement": "Patients with Gr3 TEAE: Hypertension", "setting": "[2]; 400 mg, N=49", "result": 0, "unit": "n"}, {"measurement": "Patients with Gr3 TEAE: Musculoskeletal pain", "setting": "[2]; 400 mg, N=49", "result": 0, "unit": "n"}, {"measurement": "Patients with Gr3 TEAE: Nasopharyngitis", "setting": "[2]; 400 mg, N=49", "result": 0, "unit": "n"}, {"measurement": "Patients with Gr3 TEAE: Pyrexia", "setting": "[2]; 400 mg, N=49", "result": 0, "unit": "n"}, {"measurement": "Patients with Gr3 TEAE: Rhinitis allergic", "setting": "[2]; 400 mg, N=49", "result": 0, "unit": "n"}, {"measurement": "Patients with Gr3 TEAE: Urinary tract infection", "setting": "[2]; 400 mg, N=49", "result": 0, "unit": "n"}, {"measurement": "Patients with related Gr3 TEAE: ALL", "setting": "[2]; 400 mg, N=49", "result": 0, "unit": "n"}, {"measurement": "Patients with related Gr3 TEAE: ALT increased", "setting": "[2]; 400 mg, N=49", "result": 0, "unit": "n"}, {"measurement": "Patients with related Gr3 TEAE: AST increased", "setting": "[2]; 400 mg, N=49", "result": 0, "unit": "n"}, {"measurement": "Patients with related Gr3 TEAE: Abdominal pain", "setting": "[2]; 400 mg, N=49", "result": 0, "unit": "n"}, {"measurement": "Patients with related Gr3 TEAE: Abdominal pain upper", "setting": "[2]; 400 mg, N=49", "result": 0, "unit": "n"}, {"measurement": "Patients with related Gr3 TEAE: Arthralgia", "setting": "[2]; 400 mg, N=49", "result": 0, "unit": "n"}, {"measurement": "Patients with related Gr3 TEAE: Asthenia", "setting": "[2]; 400 mg, N=49", "result": 0, "unit": "n"}, {"measurement": "Patients with related Gr3 TEAE: Back pain", "setting": "[2]; 400 mg, N=49", "result": 0, "unit": "n"}, {"measurement": "Patients with related Gr3 TEAE: Constipation", "setting": "[2]; 400 mg, N=49", "result": 0, "unit": "n"}, {"measurement": "Patients with related Gr3 TEAE: Cough", "setting": "[2]; 400 mg, N=49", "result": 0, "unit": "n"}, {"measurement": "Patients with related Gr3 TEAE: Decreased appetite", "setting": "[2]; 400 mg, N=49", "result": 0, "unit": "n"}, {"measurement": "Patients with related Gr3 TEAE: Depression", "setting": "[2]; 400 mg, N=49", "result": 0, "unit": "n"}, {"measurement": "Patients with related Gr3 TEAE: Diarrhoea", "setting": "[2]; 400 mg, N=49", "result": 0, "unit": "n"}, {"measurement": "Patients with related Gr3 TEAE: Dry skin", "setting": "[2]; 400 mg, N=49", "result": 0, "unit": "n"}, {"measurement": "Patients with related Gr3 TEAE: Dyspnoea", "setting": "[2]; 400 mg, N=49", "result": 0, "unit": "n"}, {"measurement": "Patients with related Gr3 TEAE: Fatigue", "setting": "[2]; 400 mg, N=49", "result": 0, "unit": "n"}, {"measurement": "Patients with related Gr3 TEAE: Gastroesophageal reflux disease", "setting": "[2]; 400 mg, N=49", "result": 0, "unit": "n"}, {"measurement": "Patients with related Gr3 TEAE: Headache", "setting": "[2]; 400 mg, N=49", "result": 0, "unit": "n"}, {"measurement": "Patients with related Gr3 TEAE: Hot flush", "setting": "[2]; 400 mg, N=49", "result": 0, "unit": "n"}, {"measurement": "Patients with related Gr3 TEAE: Hypertension", "setting": "[2]; 400 mg, N=49", "result": 0, "unit": "n"}, {"measurement": "Patients with related Gr3 TEAE: Musculoskeletal pain", "setting": "[2]; 400 mg, N=49", "result": 0, "unit": "n"}, {"measurement": "Patients with related Gr3 TEAE: Nasopharyngitis", "setting": "[2]; 400 mg, N=49", "result": 0, "unit": "n"}, {"measurement": "Patients with related Gr3 TEAE: Nausea", "setting": "[2]; 400 mg, N=49", "result": 0, "unit": "n"}, {"measurement": "Patients with related Gr3 TEAE: Pyrexia", "setting": "[2]; 400 mg, N=49", "result": 0, "unit": "n"}, {"measurement": "Patients with related Gr3 TEAE: Rhinitis allergic", "setting": "[2]; 400 mg, N=49", "result": 0, "unit": "n"}, {"measurement": "Patients with related Gr3 TEAE: Urinary tract infection", "setting": "[2]; 400 mg, N=49", "result": 0, "unit": "n"}]}]}
